Test results as given in the NIST ThermoML archive (doi:10.1021/je200969r).
Numbers after ± are expanded uncertainties.

Assay: refractive index (other wavelength) (dimensionless)
Conditions: 101.33 kPa, Liquid, Minimum Deviation technique

[2H]O[2H] [water-d2]
refractive index
Conditions | Wavelength=543.5 nm | Wavelength=594.1 nm | Wavelength=632.8 nm
288.35 K | 1.33 ± 0.0004 | 1.3283 ± 0.0004 | 1.3272 ± 0.0004
293.29 K | 1.3298 ± 0.0004 | 1.3281 ± 0.0004 | 1.327 ± 0.0004
298.12 K | 1.3293 ± 0.0004 | 1.3278 ± 0.0004 | 1.3267 ± 0.0004
303.15 K | 1.3285 ± 0.0004 | 1.3271 ± 0.0004 | 1.326 ± 0.0004
308.09 K | 1.328 ± 0.0004 | 1.3266 ± 0.0004 | 1.3254 ± 0.0004
313.11 K | 1.3275 ± 0.0004 | 1.3259 ± 0.0004 | 1.3249 ± 0.0004
318.13 K | 1.3269 ± 0.0004 | 1.3254 ± 0.0004 | 1.3243 ± 0.0004
323.14 K | 1.3263 ± 0.0004 | 1.3248 ± 0.0004 | 1.3237 ± 0.0004
328.12 K | 1.3251 ± 0.0004 | 1.3236 ± 0.0004 | 1.3225 ± 0.0004
333.06 K | 1.3244 ± 0.0004 | 1.3229 ± 0.0004 | 1.3219 ± 0.0004
337.98 K | 1.3237 ± 0.0004 | 1.3221 ± 0.0004 | 1.3211 ± 0.0004
